Laboratory results from BindingDB's records for doi:10.7270/Q2CJ8BXT (Burnham Center For Chemical Genomics, 2010).

target: T1, Type-1 angiotensin II receptor (Homo sapiens, UniProt P30556); assay: AT1 receptor antagonists, dose response, selectivity assay for APJ receptor antagonist project, cell-based, uHTS hits (AID 463214)
T1 sequence (P30556 whole entry): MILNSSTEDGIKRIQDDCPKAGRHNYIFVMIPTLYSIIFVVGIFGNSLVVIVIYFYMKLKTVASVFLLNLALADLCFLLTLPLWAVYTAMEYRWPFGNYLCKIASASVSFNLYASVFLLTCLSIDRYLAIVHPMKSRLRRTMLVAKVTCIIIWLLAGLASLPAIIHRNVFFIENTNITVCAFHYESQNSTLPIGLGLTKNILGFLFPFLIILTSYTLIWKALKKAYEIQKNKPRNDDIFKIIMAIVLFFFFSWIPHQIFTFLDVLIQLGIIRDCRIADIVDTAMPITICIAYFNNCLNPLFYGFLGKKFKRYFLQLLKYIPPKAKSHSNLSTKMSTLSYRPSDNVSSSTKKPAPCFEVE

SMILES | IC50
Cc1ncc(C=O)c(CNNc2ccc(C(F)(F)F)cn2)c1O | 28.7 µM
Cc1[nH]n(C(N)=S)c(=O)c1N=Nc1ccc([N+](=O)[O-])cc1 [3-Methyl-4-(4-nitro-phenylazo)-5-oxo-4,5-dihydro-pyrazole-1-carbothioic acid amide] | 35.3 µM
CCOC(=O)c1[nH]nc(C(O)c2ccc(Cl)cc2)c1-c1ccccc1 (configuration not stated) [SMR000271792] | 39.9 µM
CCOC(=O)C1C(C)=NC2=C(C(=O)CC(c3cccs3)C2)C1c1cccs1 (configuration not stated) [2-Methyl-5-oxo-4,7-di-thiophen-2-yl-1,4,5,6,7,8-hexahydro-quinoline-3-carboxylic acid ethyl ester] | 36 µM
COC(=O)c1[nH]nc(C(O)c2ccc(Cl)cc2)c1-c1ccc(OC)cc1 (configuration not stated) [MLS000702189] | 28.4 µM
COc1ccc2c(c1)C(O)C(=O)[C@H](c1ccc(OC)c(Br)c1)O2 (some centres not stated) | 34.6 µM
O=C1C=CC([N+](=O)[O-])=CC1CN=Nc1ccc(Cl)nn1 (configuration not stated) [SMR000184399] | 3.63 µM
